Tests used:
MTP = MTP (Homo sapiens, UniProt P55157); test: MTP assay (triglyceride transfer from donor to acceptor vesicles); format: biochemical; conditions: MTP activity, percent triglyceride transfer from donor to acceptor vesicles, 37° C.
Procedure, shortened: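 Radiolabelled triglyceride transfer from donor vesicles (phosphatidylcholine, 7.5 mol % cardiolipin, 0.25 mol % glycerol tri[1-^14C]-oleate) to phosphatidylcholine acceptor vesicles with BSA, pH 7.5 Tris buffer; compounds in DMSO (0.13% final), 5 min preincubation at 37° C before MTP addition. Donor vesicles removed on DEAE-52; acceptor-supernatant ^14C counts give percent transfer.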

HepG2 cells = test: Quantification of the secretion of ApoB; format: cell-based; conditions: Homo sapiens, HepG2, 24 h, 24 hours of incubation, pIC50 = -log IC50
Procedure, shortened: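 At 70% confluency, HepG2 cells received compound (0.4% DMSO final) for 24 h. Secreted apoB in cleared medium was immunoprecipitated with sheep anti-apoB then rabbit anti-sheep antibody (24 h each at 8° C.), and pellet radioactivity was counted by scintillation. IC50 values were expressed as pIC50.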

MTP, sequence (P55157 19-894, species assumed): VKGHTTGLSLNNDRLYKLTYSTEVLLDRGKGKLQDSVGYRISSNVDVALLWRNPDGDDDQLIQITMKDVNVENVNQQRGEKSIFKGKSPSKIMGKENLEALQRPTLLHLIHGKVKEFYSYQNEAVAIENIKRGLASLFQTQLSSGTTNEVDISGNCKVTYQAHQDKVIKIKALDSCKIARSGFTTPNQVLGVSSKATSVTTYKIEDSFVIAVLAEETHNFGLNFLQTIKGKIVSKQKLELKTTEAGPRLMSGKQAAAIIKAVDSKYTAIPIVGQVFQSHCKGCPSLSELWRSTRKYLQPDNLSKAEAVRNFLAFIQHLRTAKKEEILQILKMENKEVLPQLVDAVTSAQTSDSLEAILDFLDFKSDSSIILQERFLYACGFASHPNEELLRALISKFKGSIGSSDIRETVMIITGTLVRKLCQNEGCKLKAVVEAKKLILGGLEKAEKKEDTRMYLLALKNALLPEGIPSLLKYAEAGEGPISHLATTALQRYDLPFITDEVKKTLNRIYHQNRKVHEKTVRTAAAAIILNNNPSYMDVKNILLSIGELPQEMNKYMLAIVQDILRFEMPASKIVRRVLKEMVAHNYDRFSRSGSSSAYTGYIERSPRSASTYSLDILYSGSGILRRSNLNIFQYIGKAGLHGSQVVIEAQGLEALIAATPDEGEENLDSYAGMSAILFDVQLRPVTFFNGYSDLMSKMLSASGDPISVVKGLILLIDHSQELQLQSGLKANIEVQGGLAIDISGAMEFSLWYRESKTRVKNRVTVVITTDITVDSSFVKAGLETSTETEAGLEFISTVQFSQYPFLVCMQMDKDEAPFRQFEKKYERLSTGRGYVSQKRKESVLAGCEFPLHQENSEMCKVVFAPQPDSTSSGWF
MTP, sequence (P07237 18-508 partner, species assumed): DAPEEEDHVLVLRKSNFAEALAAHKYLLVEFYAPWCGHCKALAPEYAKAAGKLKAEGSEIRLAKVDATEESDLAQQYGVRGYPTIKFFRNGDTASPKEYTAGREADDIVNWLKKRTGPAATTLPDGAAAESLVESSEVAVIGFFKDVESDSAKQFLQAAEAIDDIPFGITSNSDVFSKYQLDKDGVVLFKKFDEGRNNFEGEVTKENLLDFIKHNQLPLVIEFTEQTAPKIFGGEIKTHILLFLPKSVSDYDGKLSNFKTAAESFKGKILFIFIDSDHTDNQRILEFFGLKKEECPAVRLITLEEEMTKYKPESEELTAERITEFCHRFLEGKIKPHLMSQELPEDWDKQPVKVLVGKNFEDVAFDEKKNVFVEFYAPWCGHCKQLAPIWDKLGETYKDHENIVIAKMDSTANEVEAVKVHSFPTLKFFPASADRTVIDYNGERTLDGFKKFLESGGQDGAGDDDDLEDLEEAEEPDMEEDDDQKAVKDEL

Question: Which results are given for CCOC(=O)[C@]1(c2ccccc2)CC[C@@H](C(=O)N2CCC(NC(=O)c3ccccc3)CC2)c2ccccc21 (racemic) [Co. No. 25]?
Answer: melting point: 112 to 115 °C; IC50 (MTP): 3.85 nM; IC50 (HepG2 cells): 15 nM

Question: For C=CCOC(=O)[C@]1(c2ccccc2)CC[C@@H](C(=O)N2CCC(NC(=O)c3ccccc3)CC2)c2ccccc21 [Co. No. 13], which melting point is on record?
Answer: 103 to 107 °C

Question: And the IC50 (MTP)?
Answer: 6.05 nM

Question: What about the IC50 (HepG2 cells) of the same compound?
Answer: 28.8 nM

Question: What does the source list for CCCOC(=O)CCCCCNC(=O)[C@@]1(c2ccccc2)CC[C@H](C(=O)N2CCC(NC(=O)c3ccccc3OC)CC2)c2ccccc21 [Co. No. 246]?
Answer: IC50 (MTP): 3.87 nM; IC50 (HepG2 cells): 234 nM

Question: Which IC50 (MTP) does the source give for CCCOC(=O)CC[C@H](NC(=O)[C@@]1(c2ccccc2)CC[C@H](C(=O)N2CCC(NC(=O)c3ccccc3OC)CC2)c2ccccc21)C(=O)OCCC [Co. No. 247] here?
Answer: 5.96 nM

Question: And the IC50 (HepG2 cells)?
Answer: 382 nM

Question: What does the source list for COc1ccccc1C(=O)NC1CCN(C(=O)[C@H]2CC[C@@](C(=O)N[C@@H](CCC(=O)OC(C)C)C(=O)OC(C)C)(c3ccccc3)c3ccccc32)CC1 [Co. No. 248]?
Answer: IC50 (MTP): 6.61 nM; IC50 (HepG2 cells): 184 nM

Question: Which results are given for CCCOC(=O)CCCNC(=O)[C@@]1(c2ccccc2)CC[C@H](C(=O)N2CCC(NC(=O)c3ccccc3OC)CC2)c2ccccc21 [Co. No. 249]?
Answer: IC50 (MTP): 2.64 nM; IC50 (HepG2 cells): 586 nM

Question: Which IC50 (MTP) does the source give for COc1ccccc1C(=O)NC1CCN(C(=O)[C@H]2CC[C@@](C(=O)NCCCC(=O)OC(C)C)(c3ccccc3)c3ccccc32)CC1 [Co. No. 250] here?
Answer: 1.79 nM

Question: And the IC50 (HepG2 cells)?
Answer: 343 nM

Question: Which results are given for CCOC(=O)[C@]1(c2ccccc2)CC[C@@H](C(=O)N2CCC(NC(=O)c3ccccc3N3CCOCC3)CC2)c2ccccc21 [Co. No. 252]?
Answer: IC50 (MTP): 2.49 nM; IC50 (HepG2 cells): 3.52 nM

Question: For CCOC(=O)[C@@]1(c2ccccc2)CC[C@H](C(=O)N2CCC(NC(=O)c3cccnc3OC)CC2)c2ccccc21 [Co. No. 253], which IC50 (MTP) is on record?
Answer: 0.984 nM

Question: And the IC50 (HepG2 cells)?
Answer: 3.24 nM

Question: What does the source list for COC(=O)CCNC(=O)[C@@]1(c2ccccc2)CC[C@H](C(=O)N2CCC(NC(=O)c3cccnc3OC)CC2)c2ccccc21 [Co. No. 254]?
Answer: IC50 (MTP): 3 nM; IC50 (HepG2 cells): 17.1 nM

Question: For COC(=O)CCNC(=O)[C@@]1(c2ccccc2)CC[C@H](C(=O)N2CCC(NC(=O)c3cccnc3O)CC2)c2ccccc21 [Co. No. 255], which IC50 (MTP) is on record?
Answer: 585 nM

Question: What about the IC50 (HepG2 cells) of the same compound?
Answer: > 1000 nM

Question: For COC(=O)CCNC(=O)[C@]1(c2ccccc2)CC[C@@H](C(=O)N2CCC(NC(=O)c3ccccc3OC)CC2)c2ccccc21 [Co. No. 256], which IC50 (MTP) is on record?
Answer: > 1000 nM

Question: And the IC50 (HepG2 cells)?
Answer: > 1000 nM

Question: For COc1ccccc1C(=O)NC1CCN(C(=O)[C@@H]2CC[C@](C(=O)NCCC(=O)OC(C)C)(c3ccccc3)c3ccccc32)CC1 [Co. No. 257], which IC50 (MTP) is on record?
Answer: > 1000 nM

Question: And the IC50 (HepG2 cells)?
Answer: > 1000 nM

Question: For COc1ncccc1C(=O)NC1CCN(C(=O)[C@H]2CC[C@@](C(=O)NCCC(=O)O)(c3ccccc3)c3ccccc32)CC1 [Co. No. 258], which IC50 (MTP) is on record?
Answer: 1800 nM

Question: And the IC50 (HepG2 cells)?
Answer: > 1000 nM

Question: Which IC50 (MTP) does the source give for CCCOC(=O)[C@]1(c2ccccc2)CC[C@@H](C(=O)N2CCC(NC(=O)c3ccccc3N3CCOCC3)CC2)c2ccccc21 [Co. No. 260] here?
Answer: 3.64 nM

Question: What about the IC50 (HepG2 cells) of the same compound?
Answer: 6.34 nM

Question: For COc1ncccc1C(=O)NC1CCN(C(=O)[C@@H]2CC[C@](C(=O)NCCC(=O)OC(C)C)(c3ccccc3)c3ccccc32)CC1 [Co. No. 261], which IC50 (MTP) is on record?
Answer: 757 nM

Question: What about the IC50 (HepG2 cells) of the same compound?
Answer: > 1000 nM

Question: What does the source list for COC(=O)CCNC(=O)[C@]1(c2ccccc2)CC[C@@H](C(=O)N2CCC(NC(=O)c3cccnc3OC)CC2)c2ccccc21 [Co. No. 262]?
Answer: IC50 (MTP): > 1000 nM; IC50 (HepG2 cells): > 1000 nM

Question: With COC(=O)CCNC(=O)[C@]1(c2ccccc2)CC[C@@H](C(=O)N2CCC(NC(=O)c3ccccc3N3CCOCC3)CC2)c2ccccc21 [Co. No. 263] as the compound, how does the IC50 (MTP) read?
Answer: 15.7 nM

Question: And the IC50 (HepG2 cells)?
Answer: 64.4 nM

Question: With C=CCOC(=O)[C@@]1(c2ccccc2)CC[C@H](C(=O)N2CCC(NC(=O)c3cccnc3OC)CC2)c2ccccc21 [Co. No. 266] as the compound, how does the IC50 (MTP) read?
Answer: 0.966 nM

Question: And the IC50 (HepG2 cells)?
Answer: 2.04 nM

Question: With COC(=O)CCNC(=O)[C@@]1(c2ccccc2)CC[C@H](C(=O)N2CCC(NC(=O)c3ccccc3N3CCN(C)CC3)CC2)c2ccccc21 [Co. No. 272] as the compound, how does the IC50 (MTP) read?
Answer: 50.9 nM

Question: And the IC50 (HepG2 cells)?
Answer: 670 nM

Question: For CCOC(=O)[C@@]1(c2cccc(F)c2)CC[C@@H](C(=O)N2CCC(NC(=O)c3ccccc3OC)CC2)c2cc(F)ccc21 [Co. No. 273], which IC50 (MTP) is on record?
Answer: 165 nM

Question: What about the IC50 (HepG2 cells) of the same compound?
Answer: 1000 nM

Question: What does the source list for CCOC(=O)[C@@]1(c2ccccc2)CC[C@H](C(=O)N2CCC(NC(=O)c3cccnc3OC(C)C)CC2)c2ccccc21 [Co. No. 274]?
Answer: IC50 (MTP): 4.69 nM; IC50 (HepG2 cells): 17.3 nM

Question: For COc1ccccc1C(=O)NC1CCN(C(=O)[C@H]2CC[C@](C(=O)NCCC(=O)OC(C)C)(c3ccc(Br)cc3)c3cc(Br)ccc32)CC1 [Co. No. 275], which IC50 (MTP) is on record?
Answer: > 1000 nM

Question: What about the IC50 (HepG2 cells) of the same compound?
Answer: > 1000 nM

Question: What does the source list for CC(C)OC(=O)CCNC(=O)[C@@]1(c2ccccc2)CC[C@H](C(=O)N2CCC(NC(=O)c3ccccc3N3CCN(C)CC3)CC2)c2ccccc21 [Co. No. 276]?
Answer: IC50 (MTP): 3.49 nM; IC50 (HepG2 cells): 75.2 nM

Question: Which results are given for CC(C)OC(=O)CCNC(=O)[C@@]1(c2ccccc2)CC[C@H](C(=O)N2CCC(NC(=O)c3cccnc3N3CCN(C)CC3)CC2)c2ccccc21 [Co. No. 277]?
Answer: IC50 (MTP): 11.4 nM; IC50 (HepG2 cells): 108 nM

Question: For CCCOC(=O)CCNC(=O)[C@@]1(c2ccccc2)CC[C@H](C(=O)N2CCC(NC(=O)c3ccccc3OC)CC2)c2ccccc21 [Co. No. 279], which IC50 (MTP) is on record?
Answer: 1.5 nM

Question: What about the IC50 (HepG2 cells) of the same compound?
Answer: 14.1 nM

Question: Which IC50 (MTP) does the source give for COc1ncccc1C(=O)NC1CCN(C(=O)[C@H]2CC[C@@](C(=O)NCCC(=O)OC(C)C)(c3ccccc3)c3ccccc32)CC1 [Co. No. 280] here?
Answer: 0.82 nM

Question: What about the IC50 (HepG2 cells) of the same compound?
Answer: 3.82 nM
